Several values for one entry are separate records, joined by “and”; a condition that tells them apart may be missing. Equal entries are not always repeated. Toxic doses and inconclusive results are not listed. Cut-off read from the data, not from the text of the source: active = T/C of 150% or more; inactive = T/C below 125%.
Test system: L1210 leukemia ip in BDF1 mice, survival T/C
Test: NCI In Vivo Anticancer Drug Screen. Data for tumor model L1210 Leukemia (intraperitoneal) in B6D2F1 (BDF1) mice
Conditions: endpoint: mean survival time, higher = longer survival
How it was run: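 Value reflects the ratio of survival in compound-treated mice to survival in vehicle-treated controls, with both groups carrying the same transplanted tumor.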

[1] = dose: 100.0 mg/kg/injection, schedule: Q01DX009 (ip), vehicle: Klucel (hydroxypropylcellulose) (HPC)
[2] = dose: 200.0 mg/kg/injection, schedule: Q01DX009 (ip), vehicle: Klucel (hydroxypropylcellulose) (HPC)
[3] = dose: 400.0 mg/kg/injection, schedule: Q01DX009 (ip), vehicle: Klucel (hydroxypropylcellulose) (HPC)
[4] = dose: 100.0 mg/kg/injection, schedule: Q04DX003 (ip), vehicle: Klucel (hydroxypropylcellulose) (HPC)
[5] = dose: 200.0 mg/kg/injection, schedule: Q04DX003 (ip), vehicle: Klucel (hydroxypropylcellulose) (HPC)
[6] = dose: 400.0 mg/kg/injection, schedule: Q04DX003 (ip), vehicle: Klucel (hydroxypropylcellulose) (HPC)
[7] = dose: 100.0 mg/kg/injection, schedule: Q01DX009 (ip), vehicle: saline
[8] = dose: 200.0 mg/kg/injection, schedule: Q01DX009 (ip), vehicle: saline
[9] = dose: 400.0 mg/kg/injection, schedule: Q01DX009 (ip), vehicle: saline
[10] = dose: 100.0 mg/kg/injection, schedule: Q04DX002 (ip), vehicle: saline
[11] = dose: 200.0 mg/kg/injection, schedule: Q04DX002 (ip), vehicle: saline
[12] = dose: 100.0 mg/kg/injection, schedule: Q01DX001 (ip), vehicle: saline
[13] = dose: 200.0 mg/kg/injection, schedule: Q01DX001 (ip), vehicle: saline
[14] = dose: 400.0 mg/kg/injection, schedule: Q01DX001 (ip), vehicle: saline
[15] = dose: 100.0 mg/kg/injection, schedule: Q04DX003 (ip), vehicle: saline
[16] = dose: 200.0 mg/kg/injection, schedule: Q04DX003 (ip), vehicle: saline
[17] = dose: 400.0 mg/kg/injection, schedule: Q04DX003 (ip), vehicle: saline
[18] = dose: 100.0 mg/kg/injection, schedule: Q01DX001 (ip), vehicle: carboxymethylcellulose (CMC)
[19] = dose: 200.0 mg/kg/injection, schedule: Q01DX001 (ip), vehicle: carboxymethylcellulose (CMC)
[20] = dose: 400.0 mg/kg/injection, schedule: Q01DX001 (ip), vehicle: carboxymethylcellulose (CMC)
[21] = dose: 100.0 mg/kg/injection, schedule: Q04DX003 (ip), vehicle: saline with Tween-80
[22] = dose: 200.0 mg/kg/injection, schedule: Q04DX003 (ip), vehicle: saline with Tween-80
[23] = dose: 400.0 mg/kg/injection, schedule: Q04DX003 (ip), vehicle: saline with Tween-80
[24] = dose: 100.0 mg/kg/injection, schedule: Q04DX002 (ip), vehicle: Klucel (hydroxypropylcellulose) (HPC)
[25] = dose: 200.0 mg/kg/injection, schedule: Q04DX002 (ip), vehicle: Klucel (hydroxypropylcellulose) (HPC)
[26] = dose: 400.0 mg/kg/injection, schedule: Q04DX002 (ip), vehicle: Klucel (hydroxypropylcellulose) (HPC)

Measured: T/C

O=C(NCc1ccc(Cl)c(Cl)c1)Nc1ccccc1Cl
inactive: [1] 97 % of control | [2] 100 % of control | [3] 103 % of control

COC(=O)c1nccnc1N
inactive: dose: 50.0 mg/kg/injection, schedule: Q01DX009 (ip), vehicle: Klucel (hydroxypropylcellulose) (HPC) 94 % of control | dose: 75.0 mg/kg/injection, schedule: Q01DX001 (ip), vehicle: alcohol 108 % of control | [1] 97 % of control | [4] 94 % of control | dose: 150.0 mg/kg/injection, schedule: Q01DX001 (ip), vehicle: alcohol 105 % of control | [2] 108 % of control | [5] 92 % of control | dose: 300.0 mg/kg/injection, schedule: Q01DX001 (ip), vehicle: alcohol 100 % of control | [6] 95 % of control

COc1nccnn1
inactive: dose: 100.0 mg/kg/injection, schedule: Q01DX001 (ip), vehicle: saline with Tween-80 93 % of control | dose: 200.0 mg/kg/injection, schedule: Q01DX001 (ip), vehicle: saline with Tween-80 103 % of control | dose: 400.0 mg/kg/injection, schedule: Q01DX001 (ip), vehicle: saline with Tween-80 101 % of control

OCc1ccccc1NCc1ccccc1
inactive: [1] 103 % of control | dose: 100.0 mg/kg/injection, schedule: Q04DX003 (ip), vehicle: other 105 % of control | [2] 91 % of control | dose: 200.0 mg/kg/injection, schedule: Q04DX003 (ip), vehicle: other 100 % of control | [3] 99 % of control | dose: 400.0 mg/kg/injection, schedule: Q04DX003 (ip), vehicle: other 97 % of control

O=S(=O)(Nc1ccccc1F)c1cc(Cl)c(Cl)cc1Cl
inactive: [7] 96 % of control | [8] 96 % of control | [9] 94 % of control

O=S1ON=C(c2ccccc2)N1c1ccccc1Cl (configuration not stated)
inactive: [4] 93 % of control | [5] 93 % of control | [6] 88 % of control

CNc1ncnc2nn(C)c(C#N)c12
inactive: dose: 50.0 mg/kg/injection, schedule: Q04DX002 (ip), vehicle: saline 106 % of control | [10] 95 % of control | [11] 103 % of control

CC(=O)OC(C(C)=O)c1ccccc1 (configuration not stated)
inactive: dose: 50.0 mg/kg/injection, schedule: Q01DX001 (ip), vehicle: saline 101 % of control | [12] 101 % of control | [13] 98 % of control | [14] 101 % of control

O=C1CCC(=O)C12CCNCC2
inactive: [7] 97 % of control | [15] 100 % of control | [8] 104 % of control | [16] 88 % of control | [17] 107 % of control

O=C(NCOC(c1ccccc1)c1ccccc1)c1cccnc1
inactive: [15] 89 % of control | [16] 86 % of control | [17] 92 % of control

Nc1ccccc1-c1nc(N)c2ccccc2n1
inactive: dose: 100.0 mg/kg/injection, schedule: Q01DX001 (ip), vehicle: Klucel (hydroxypropylcellulose) (HPC) 102 % of control | dose: 200.0 mg/kg/injection, schedule: Q01DX001 (ip), vehicle: Klucel (hydroxypropylcellulose) (HPC) 102 % of control | dose: 400.0 mg/kg/injection, schedule: Q01DX001 (ip), vehicle: Klucel (hydroxypropylcellulose) (HPC) 108 % of control

Cc1cccc(C)c1NC(=O)Nc1ccc(C(=O)O)c(O)c1
inactive: [1] 110 % of control | [2] 95 % of control | [3] 97 % of control

CCCNC(=O)Nc1cccc(Cl)c1
inactive: [18] 102 % of control | [19] 109 % of control | [20] 105 % of control

NNC(=O)c1ccccc1Nc1ccc(Br)cc1
inactive: [1] 94 % of control | [4] 94 % of control | [2] 93 % of control | [5] 94 % of control | [3] 86 % of control | [6] 96 % of control

CCCCCCCCC(=O)Nc1cccc(OC(=O)NC)c1
inactive: [21] 94 % of control | [22] 96 % of control | [23] 90 % of control

CC1(C)C2CCCC1(CCOC(=O)COc1cc(Cl)c(Cl)cc1Cl)C2 (configuration not stated)
inactive: [24] 98 % of control | [25] 91 % of control | [26] 88 % of control

CCC(C)(O)C(=O)O (configuration not stated)
inactive: [10] 114 % of control | [11] 114 % of control

COc1ccc(C(CC(C)=O)c2c(O)c3ccccc3oc2=O)cc1OC (configuration not stated)
inactive: dose: 1.56 mg/kg/injection, schedule: Q01DX009 (ip), vehicle: water 102 % of control | dose: 3.12 mg/kg/injection, schedule: Q01DX009 (ip), vehicle: water 97 % of control | dose: 6.25 mg/kg/injection, schedule: Q01DX009 (ip), vehicle: water 98 % of control | dose: 12.5 mg/kg/injection, schedule: Q01DX009 (ip), vehicle: water 93 % of control | dose: 25.0 mg/kg/injection, schedule: Q01DX009 (ip), vehicle: water 93 % of control and 86 % of control

S=c1sc2ccccc2n1CCNc1ccccc1
inactive: dose: 50.0 mg/kg/injection, schedule: Q01DX001 (ip), vehicle: carboxymethylcellulose (CMC) 96 % of control | [18] 100 % of control | [19] 100 % of control | [20] 89 % of control

OC(CBr)c1ccc(Cl)cc1 (configuration not stated)
inactive: dose: 100.0 mg/kg/injection, schedule: Q01DX009 (ip), vehicle: saline with Tween-80 96 % of control | [21] 98 % of control | dose: 200.0 mg/kg/injection, schedule: Q01DX009 (ip), vehicle: saline with Tween-80 96 % of control | [22] 104 % of control | [23] 89 % of control

O=S(=O)(O)CCCCO
inactive: [7] 98 % of control | [15] 95 % of control | [8] 95 % of control | [16] 100 % of control | [9] 95 % of control | [17] 97 % of control

Nc1nc(N)c2nc(NCc3ccc(C(=O)NC(CCC(=O)O)C(=O)O)cc3)cnc2n1 (configuration not stated)
inactive: [12] 100 % of control | [7] 117 % of control | [10] 103 % of control and 105 % of control | [13] 105 % of control | [8] 117 % of control | [11] 103 % of control and 107 % of control | [14] 96 % of control | dose: 400.0 mg/kg/injection, schedule: Q04DX002 (ip), vehicle: saline 107 % of control and 113 % of control

COc1ccc(C=O)cc1Br
inactive: [4] 102 % of control | [5] 97 % of control | [6] 95 % of control

OC1CCCC2CCC[N-]C12.OC1CCCC2CCC[N-]C12.[Mn+2] (configuration not stated)
inactive: dose: 50.0 mg/kg/injection, schedule: Q04DX003 (ip), vehicle: Klucel (hydroxypropylcellulose) (HPC) 106 % of control | [4] 113 % of control | [5] 106 % of control

CC(OC(=O)c1ccc([N+](=O)[O-])cc1)C(C)(C)C (configuration not stated)
inactive: [24] 109 % of control | [25] 123 % of control | [26] 113 % of control

Source: PubChem BioAssay AID248 (DTP/NCI, 2004)
